Reference: US20020035061A1, “COMPOSITIONS AND METHODS FOR TREATING INFECTIONS USING CATIONIC PEPTIDES ALONE OR IN COMBINATION WITH ANTIBIOTICS” (priority 1996, published 2002)
Read-outs that look alike come from different tables or passages of the source.

Legend:
P. aeruginosa = type: cell-based; conditions: for Peptide MIC values: agarose dilution
S. pneumoniae = assay: Agarose dilution assay (MIC); type: cell-based; conditions: agarose dilution
A. calcoaceticus = type: cell-based; conditions: A. calcoaceticus AC001
E. coli = type: cell-based; conditions: for Peptide MIC values: agarose dilution
E. faecium = type: cell-based
S. marcescens = type: cell-based
E. cloacae = type: cell-based; conditions: E. cloacae ECL007
K. pneumoniae = type: cell-based; conditions: K. pneumoniae KP002
[1] = test system: MSSA (Smith, ATCC # 19640); assay: In vivo efficacy, MSSA infection; design: species or system S. aureus; conditions: mice, ip, formulation D, below 14.5 mg/kg
S. aureus = type: cell-based; conditions: for Peptide MIC values: agarose dilution
S. maltophilia = type: cell-based; conditions: S. maltophilia SMA002
S. epidermidis = type: cell-based; conditions: S. epidermidis SE010
[2] = test system: E. coli strain ML-35 inner membrane; type: cell-based; conditions: cells pre-incubated with valinomycin
[3] = test system: mammalian red blood cells; conditions: 37° C., 1 hour
Protocol: Candidate cationic peptides may be further tested for their toxicity to normal mammalian cells. An exemplary assay is a red blood cell (RBC) (erythrocyte) hemolysis assay. Briefly, in this assay, red blood cells are isolated from whole blood, typically by centrifugation, and washed free of plasma components. A 5% (v/v) suspension of erythrocytes in isotonic saline is incubated with different concentrations of peptide analogue. […] After incubation for approximately 1 hour at 37° C., the cells are centrifuged, and the absorbance of the supernatant at 540 nm is determined. A relative measure of lysis is determined by comparison to absorbance after complete lysis of erythrocytes using NH4Cl or equivalent (establishing a 100% value). A peptide with <10% lysis at 100 μg/ml is suitable. Preferably, there is <5% lysis at 100 μg/ml. Such peptides that are not lytic, or are only moderately lytic, are desirable and suitable for further screening.
Cationic peptides are tested for toxicity towards eukaryotic cells by measuring the extent of lysis of mammalian red blood cells (RBC). Briefly, in this assay, red blood cells are separated from whole blood by centrifugation and washed free of plasma components. A 5% (v/v) washed red blood cell suspension is prepared in isotonic saline. An aliquot of peptide in formulation is then added and mixed in. After incubation at 37° C. for 1 hour with constant agitation, the solution is centrifuged and the supernatant measured for absorbance at 540 nm to detect released hemoglobin.
A combination of cationic peptide and antibiotic agent is tested for toxicity towards eukaryotic cells by measuring the extent of lysis of mammalian red blood cells. Briefly, red blood cells are separated from whole blood by centrifugation, washed free of plasma components, and resuspended to a 5% (v/v) suspension in isotonic saline. […] Following incubation with constant agitation at 37° C. for 1 hour, the solution is centrifuged, and the absorbance of the supernatant is measured at 540 nm, which detects released hemoglobin. […]

Molecule: ILPWKWPWWPWRR [MBI 10CN]
- MIC (P. aeruginosa; P. aeruginosa PA002): >128 µg/mL
- Peptide MIC values (P. aeruginosa; P. aeruginosa ATCC 27853): >128 µg/mL
- Peptide MIC values (P. aeruginosa; P. aeruginosa NCTC 10662): >128 µg/mL
- Peptide MIC values (S. pneumoniae; S. pneumoniae 406LE8): >128 µg/mL
- Peptide MIC values (S. pneumoniae; S. pneumoniae 60120): 64 µg/mL
- Peptide MIC values (S. pneumoniae; S. pneumoniae ATCC 49619): 32 µg/mL
- MIC (A. calcoaceticus): 64 µg/mL
- MIC (E. coli; E. coli ECO001): 32 µg/mL
- MIC (E. coli; E. coli SBECO2): 16 µg/mL
- Peptide MIC values (E. coli; E. coli ATCC 25922): 16 µg/mL
- Peptide MIC values (E. coli; E. coli NCTC 10418): 8 µg/mL
- MIC (E. faecium; E. faecium EFM003): 2 µg/mL
- Peptide MIC values (E. faecium; agarose dilution): 4 µg/mL
- MIC (S. marcescens; S. marcescens SMS004): >128 µg/mL
- Peptide MIC values (S. marcescens; agarose dilution, S. marcescens SM82): >128 µg/mL
- MIC (E. cloacae): >128 µg/mL
- MIC (K. pneumoniae): 64 µg/mL
- survival [1]: clear dose-dependent survival
- MIC (S. aureus; S. aureus SA003): 2 µg/mL
- Peptide MIC values (S. aureus; S. aureus MRSA9): 1 µg/mL
- Peptide MIC values (S. aureus; S. aureus MRSA13): 4 µg/mL
- Peptide MIC values (S. aureus; S. aureus MRSA17): 2 µg/mL
- MIC (S. maltophilia): 64 µg/mL
- MIC (S. epidermidis): 4 µg/mL
- ONPG hydrolysis diminished compared to no pre-incubation [2]: approximately 50%

Molecule: CC[C@H](C)[C@H](NC(=O)CNC(=O)[C@@H](NC(=O)[C@H](CCCCN)NC(=O)[C@H](CCCCN)NC(=O)[C@H](Cc1ccccc1)NC(=O)[C@H](CC(C)C)NC(=O)[C@H](CCCCN)NC(=O)[C@H](Cc1c[nH]c2ccccc12)NC(=O)[C@@H](N)CCCCN)[C@@H](C)CC)C(=O)NCC(=O)N[C@@H](C)C(=O)N[C@H](C(=O)N[C@@H](CC(C)C)C(=O)N[C@@H](CCCCN)C(=O)N[C@H](C(=O)N[C@@H](CC(C)C)C(=O)N[C@H](C(=O)N[C@H](C(=O)NCC(=O)N[C@@H](CC(C)C)C(=O)N1CCC[C@H]1C(=O)N[C@@H](C)C(=O)N[C@@H](CC(C)C)C(=O)N[C@@H](CCCCN)C(=O)N[C@@H](CC(C)C)C(=O)N[C@H](C(=O)N[C@@H](CCCCN)C(=O)O)[C@@H](C)O)[C@@H](C)O)[C@@H](C)O)C(C)C)C(C)C [MBI 28]
- % Lysis [3]: 4.7%

Molecule: CC[C@H](C)[C@H](NC(=O)CNC(=O)[C@@H](NC(=O)[C@H](CCCCN)NC(=O)[C@H](CCCCN)NC(=O)[C@H](Cc1ccccc1)NC(=O)[C@H](CC(C)C)NC(=O)[C@H](CCCCN)NC(=O)[C@H](Cc1c[nH]c2ccccc12)NC(=O)[C@@H](N)CCCCN)[C@@H](C)CC)C(=O)NCC(=O)N[C@@H](C)C(=O)N[C@H](C(=O)N[C@@H](CC(C)C)C(=O)N[C@@H](CCCCN)C(=O)N[C@H](C(=O)N[C@@H](CC(C)C)C(=O)N[C@H](C(=O)N[C@H](C(=O)NCC(=O)N[C@@H](CC(C)C)C(=O)N1CCC[C@H]1C(=O)N[C@@H](C)C(=O)N[C@@H](CC(C)C)C(=O)N[C@H](C(=O)N[C@@H](CO)C(=O)O)[C@@H](C)CC)[C@@H](C)O)[C@@H](C)O)C(C)C)C(C)C [MBI 27]
- % Lysis [3]: 2.7%
